According to US9221756B2, “Pyrrole derivatives” (priority 2011, dated 2015):

Target: pneumolysin (Streptococcus pneumoniae serotype 2, UniProt Q04IN8)
Assay: Inhibition of the haemolytic activity of pneumolysin (sheep erythrocytes)
Assay type: cell-based
Conditions: IC50, inhibition of pneumolysin-induced haemolysis of sheep erythrocytes

pneumolysin, sequence (Q04IN8 whole entry): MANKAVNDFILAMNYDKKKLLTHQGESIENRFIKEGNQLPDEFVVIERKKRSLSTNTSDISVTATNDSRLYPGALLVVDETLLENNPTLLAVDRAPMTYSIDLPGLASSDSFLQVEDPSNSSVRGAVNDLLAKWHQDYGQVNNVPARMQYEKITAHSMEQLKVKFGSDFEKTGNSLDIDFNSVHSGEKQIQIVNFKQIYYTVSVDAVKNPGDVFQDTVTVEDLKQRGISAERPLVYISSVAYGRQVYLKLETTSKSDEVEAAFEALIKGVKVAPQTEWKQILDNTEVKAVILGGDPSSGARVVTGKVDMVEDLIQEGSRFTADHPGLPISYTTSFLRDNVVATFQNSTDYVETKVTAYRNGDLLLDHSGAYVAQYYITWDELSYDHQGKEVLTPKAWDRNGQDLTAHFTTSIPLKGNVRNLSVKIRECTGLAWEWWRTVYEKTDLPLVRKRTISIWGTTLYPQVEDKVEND

COc1ccc(-n2c(C(=O)N(C)C)c(O)c(O)c2S(=O)(=O)NC(=O)OC(C)(C)C)cc1 [UL1-030, tert-butyl (5-(dimethylcarbamoyl)-3,4-dihydroxy-1-(4-methoxyphenyl)-1H-pyrrol-2-yl)sulfonylcarbamate]
IC50 (class symbols of Table 1): 20 to 60 µM

COc1ccccc1-n1c(C(=O)N2CCOCC2)c(OCc2ccccc2)c(OCc2ccccc2)c1C(=O)N1CCOCC1 [UL1-051, (3,4-bis(benzyloxy)-1-(2-methoxyphenyl)-1H-pyrrole-2,5-diyl)bis(morpholinomethanone)]
IC50 (class symbols of Table 1): 20 to 60 µM

CCOC(=O)c1c(O)c(O)c(C(=O)OCC)n1-c1ccc(C#N)cc1 [UL2-024, diethyl 1-(4-cyanophenyl)-3,4-dihydroxy-1H-pyrrole-2,5-dicarboxylate]
IC50 (class symbols of Table 1): 10 to 20 µM

CCCCN(CCCC)C(=O)c1c(O)c(O)c(C(=O)OCC)n1-c1ccc(OC)cc1 [UL1-038, ethyl 5-(dibutylcarbamoyl)-3,4-dihydroxy-1-(4-methoxyphenyl)-1H-pyrrole-2-carboxylate]
IC50 (class symbols of Table 1): < 10 µM

CCN(CC)C(=O)c1c(O)c(O)c(C(=O)N(CC)CC)n1-c1ccc(OC)cc1 [UL1-003, N^2,N^2,N^5,N^5-tetraethyl-3,4-dihydroxy-1-(4-methoxyphenyl)-1H-pyrrole-2,5-dicarboxamide]
IC50 (class symbols of Table 1): < 10 µM

CCOC(=O)c1c(O)c(O)c(C(=O)NC)n1-c1ccc(OC)cc1 [UL1-099, ethyl 3,4-dihydroxy-1-(4-methoxyphenyl)-5-(methylcarbamoyl)-1H-pyrrole-2-carboxylate]
IC50 (class symbols of Table 1): < 10 µM

O=C(c1c(O)c(O)c(C(=O)N2CCCCC2)n1-c1ccc(F)cc1)N1CCCCC1 [UL1-011, (1-(4-fluorophenyl)-3,4-dihydroxy-1H-pyrrole-2,5-diyl)bis(piperidin-1-ylmethanone)]
IC50 (class symbols of Table 1): < 10 µM

CCOC(=O)c1c(O)c(O)c(C(=O)N(C)C)n1-c1ccc(OCCCS(C)(=O)=O)cc1 [UL1-110, ethyl 5-(dimethylcarbamoyl)-3,4-dihydroxy-1-(4-(3-(methylsulfonyl)propoxy)phenyl)-1H-pyrrole-2-carboxylate]
IC50 (class symbols of Table 1): < 10 µM

CCOC(=O)c1c(OC(=O)C(C)(C)COCCOC)c(OC(=O)C(C)(C)COCCOC)c(C(=O)N(C)C)n1-c1ccc(OC)cc1 [UL1-108, 2-(dimethylcarbamoyl)-5-(ethoxycarbonyl)-1-(4-methoxyphenyl)-1H-pyrrole-3,4-diyl bis(3-(2-methoxyethoxy)-2,2-dimethylpropanoate)]
IC50 (class symbols of Table 1): 10 to 20 µM

CCOC(=O)c1c(O)c(O)c(-c2ccccn2)n1-c1ccc(OC)cc1 [UL1-083, ethyl 3,4-dihydroxy-1-(4-methoxyphenyl)-5-(pyridin-2-yl)-1H-pyrrole-2-carboxylate]
IC50 (class symbols of Table 1): < 10 µM

CCNC(=O)c1c(OCc2ccccc2)c(OCc2ccccc2)c(C(=O)N(C)C)n1-c1ccc(OC)cc1 [UL1-055, 3,4-bis(benzyloxy)-N^2-ethyl-1-(4-methoxyphenyl)-N^5,N^5-dimethyl-1H-pyrrole-2,5-dicarboxamide]
IC50 (class symbols of Table 1): 10 to 20 µM

CCOC(=O)c1c(OC(=O)C(C)(C)COCCOCCOCCOCCOCCOCCOCCOC)c(OC(=O)C(C)(C)COCCOCCOCCOCCOCCOCCOCCOC)c(C(=O)N(C)C)n1-c1ccc(OC)cc1 [UL1-119, 2-(dimethylcarbamoyl)-5-(ethoxycarbonyl)-1-(4-methoxyphenyl)-1H-pyrrole-3,4-diyl bis(25,25-dimethyl-2,5,8,11,14,17,20,23-octaoxahexacosan-26-oate)]
IC50 (class symbols of Table 1): < 10 µM

COc1ccc(-n2c(C(=O)N(C)C)c(O)c(O)c2C(=O)N(C)C)cc1 [UL1-005, 3,4-dihydroxy-1-(4-methoxyphenyl)-N^2,N^2,N^5,N^5-tetramethyl-1H-pyrrole-2,5-dicarboxamide]
IC50 (class symbols of Table 1): < 10 µM
IC50 (specific values): 0.15 µM

CCOC(=O)c1c(O)c(O)c(C(=O)N(C)C)n1-c1ccc(OP(=O)(O)O)cc1 [UL1-101, ethyl 5-(dimethylcarbamoyl)-3,4-dihydroxy-1-(4-(phosphonooxy)phenyl)-1H-pyrrole-2-carboxylate]
IC50 (class symbols of Table 1): < 10 µM
